In ChEMBL document CHEMBL1133207, “Syntheses and antifilarial profile of 7-chloro-4-(substituted amino) quinolines: a new class of antifilarial agents” (2000):
Activity calls are given as the source filed them. The rule behind the calls is not given here.

Assays:
[1] = In vivo macrofilaricidal activity against Acanthocheilonema viteae infection in Mastomys natalensis at 200 mg/kg for 5 days after peroral administration; type: functional; conditions: route oral
[2] = In vivo microfilariacidal activity against Acanthocheilonema viteae infection in Mastomys natalensis at 200 mg/kg for 5 days after peroral administration; type: functional; conditions: route oral
[3] = The compound was evaluated for sterilization effect on female Acanthocheilonema viteae in Mastomys natalensis; type: functional, Mus musculus; design: concentration or dose not given beside the values
Mus musculus [4] = test: In vivo macrofilaricidal activity against Acanthocheilonema viteae infection in Mastomys natalensis at 200 mg/kg for 5 days after peroral administration; Inactive; type: functional, organism-based; design: dose 200 mg/kg
Mus musculus [5] = test: In vivo microfilariacidal activity against Acanthocheilonema viteae infection in Mastomys natalensis at 200 mg/kg for 5 days after peroral administration; Inactive; type: functional, organism-based; design: dose 200 mg/kg
Mus musculus [6] = organism: Mus musculus; test: The compound was evaluated for sterilization effect on female Acanthocheilonema viteae in Mastomys natalensis; Inactive; type: functional, organism-based

Row | Structure (SMILES) | Reduction [1] | Reduction [2] | Reduction [3] | Reduction (Mus musculus [4]) | Reduction (Mus musculus [5]) | Reduction (Mus musculus [6])
1 | OCCNc1ccnc2cc(Cl)ccc12 | 22% | 86% | 0% | – | – | –
2 | Clc1ccc2c(NCCN3CCNCC3)ccnc2c1 | – | – | – | inactive | inactive | inactive
3 | O=[N+]([O-])c1cc2c(NCCO)ccnc2cc1Cl | 58% | 0% | 0% | – | – | –
4 | O=[N+]([O-])c1ccc(NNc2ccnc3cc(Cl)ccc23)cc1 | 78% | 41% | 50% | – | – | –
5 | NC(Cc1ccccc1)C(=O)N1CCN(CCNc2ccnc3cc(Cl)ccc23)CC1 (stereo not drawn) | – | – | – | inactive | inactive | inactive
6 | O=[N+]([O-])c1ccc(OCCNc2ccnc3cc(Cl)ccc23)cc1 | – | – | – | inactive | inactive | inactive
7 | CC(C)(C)OC(=O)NC(Cc1ccccc1)C(=O)N1CCN(CCNc2ccnc3cc(Cl)ccc23)CC1 (stereo not drawn) | 0% | 0% | 50% | – | – | –
8 | CC(C)(C)OC(=O)NCC(=O)N1CCN(CCNc2ccnc3cc(Cl)ccc23)CC1 | 0% | 0% | 63% | – | – | –
9 | Clc1ccc2c(NCc3ccco3)ccnc2c1 | – | – | – | inactive | inactive | inactive
10 | O=C(O)C(CCCCNc1ccnc2cc(Cl)ccc12)Nc1ccnc2cc(Cl)ccc12 (stereo not drawn) | 0% | 85% | 0% | – | – | –
11 | CCN(CC)C(=O)N1CCN(C)CC1.O=C(O)CC(O)(CC(=O)O)C(=O)O [DIETHYLCARBAMAZINE CITRATE] | 0% | 90% | 0% | – | – | –
12 | CC(N)C(=O)N1CCN(CCNc2ccnc3cc(Cl)ccc23)CC1 (stereo not drawn) | 0% | 0% | 100% | – | – | –
13 | CC(C)(C)OC(=O)N1CCCC1C(=O)N1CCN(CCNc2ccnc3cc(Cl)ccc23)CC1 (stereo not drawn) | – | – | – | inactive | inactive | inactive
14 | ClCCNc1ccnc2cc(Cl)ccc12 | – | – | – | inactive | inactive | inactive
15 | O=C(C1CCCN1)N1CCN(CCNc2ccnc3cc(Cl)ccc23)CC1 (stereo not drawn) | – | – | – | inactive | inactive | inactive
16 | Clc1ccc2c(NCCN3CCN(c4ccccn4)CC3)ccnc2c1 | – | – | – | inactive | inactive | inactive
17 | N#Cc1ccc(OCCNc2ccnc3cc(Cl)ccc23)cc1 | 56% | 0% | 0% | – | – | –
18 | CCC(C)C(N)C(=O)N1CCN(CCNc2ccnc3cc(Cl)ccc23)CC1 (stereo not drawn) | – | – | – | inactive | inactive | inactive
19 | CCC(C)C(NC(=O)OC(C)(C)C)C(=O)N1CCN(CCNc2ccnc3cc(Cl)ccc23)CC1 (stereo not drawn) | – | – | – | inactive | inactive | inactive
20 | NCC(=O)N1CCN(CCNc2ccnc3cc(Cl)ccc23)CC1 | – | – | – | inactive | inactive | inactive
21 | CC(NC(=O)OC(C)(C)C)C(=O)N1CCN(CCNc2ccnc3cc(Cl)ccc23)CC1 (stereo not drawn) | – | – | – | inactive | inactive | inactive
